The values that follow are results of earlier work, collected in patent US20140161820A1, “Short-Term Surrogate Test for Investigative Drugs” (priority 2012, published 2014).

Structures are written as SMILES.

For one data set, the system named is platelets. Particulars: in vivo.
Data set [1] concerns the target T1, cholesteryl ester transfer protein (CETP) (Homo sapiens, UniProt P11597).
T1 construct: host or cells: human trial subjects (endogenous plasma CETP)
T1 sequence (P11597 18-493): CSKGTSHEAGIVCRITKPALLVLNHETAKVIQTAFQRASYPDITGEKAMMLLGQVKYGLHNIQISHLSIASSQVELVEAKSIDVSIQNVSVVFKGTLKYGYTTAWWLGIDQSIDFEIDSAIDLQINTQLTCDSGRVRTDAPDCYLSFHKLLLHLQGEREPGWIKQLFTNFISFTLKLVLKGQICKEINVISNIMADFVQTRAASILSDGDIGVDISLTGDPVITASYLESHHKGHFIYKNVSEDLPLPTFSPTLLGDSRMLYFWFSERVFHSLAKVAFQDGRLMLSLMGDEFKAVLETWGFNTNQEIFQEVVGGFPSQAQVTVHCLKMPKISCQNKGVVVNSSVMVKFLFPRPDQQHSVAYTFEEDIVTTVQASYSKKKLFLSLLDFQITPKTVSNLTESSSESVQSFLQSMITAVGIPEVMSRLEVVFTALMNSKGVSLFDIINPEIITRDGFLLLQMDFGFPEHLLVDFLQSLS
Particulars: phase III, treatment group receiving a combination of atorvastatin (Lipitor) and torcetrapib.

Take `CC(=O)Oc1ccccc1C(=O)O` [aspirin]: in the data set with platelets, the “time by which anti-platelet effects are measurable” value is at most 60 min.
For the compound `CCOC(=O)N1c2ccc(C(F)(F)F)cc2[C@@H](N(Cc2cc(C(F)(F)F)cc(C(F)(F)F)c2)C(=O)OC)C[C@H]1CC` [torcetrapib], the all-cause mortality entry in data set [1] was “excessive all-cause mortality”.
